One block for each molecule: values may come before it.
What was measured:
Format in all cases: functional, cell-based
[1] = tested on: K562; assay: Cytotoxicity evaluated against K562 tumor cell lines; Significant activity; settings: Homo sapiens
[2] = tested on: NIH3T3; assay: Cytotoxicity evaluated against NIH3T3 tumor cell lines; Significant activity; settings: Mus musculus
[3] = tested on: B16; assay: Cytotoxicity was evaluated against B16 tumor cell lines; Significant activity; settings: Mus musculus
[4] = tested on: NCI-H292; assay: Cytotoxicity evaluated against H292 tumor cell lines; Significant activity; settings: Homo sapiens
[5] = tested on: CCRF-CEM; assay: Cytotoxicity evaluated against CEM tumor cell lines; Significant activity; settings: Homo sapiens
[6] = tested on: L1210; assay: Cytotoxicity evaluated against L1210 tumor cell lines; Significant activity; settings: Mus musculus
[7] = tested on: MOLT-4; assay: Cytotoxicity was evaluated against Molt-4 tumor cell lines; settings: Homo sapiens
[8] = tested on: NCI-H596; assay: Cytotoxicity evaluated against H596 tumor cell lines; Significant activity; settings: Homo sapiens
[9] = tested on: MCF7; assay: Cytotoxicity evaluated against MCF-7 tumor cell lines; Significant activity; settings: Homo sapiens
[10] = tested on: WI-38; assay: Cytotoxicity evaluated against WI38 tumor cell lines; Significant activity; settings: Homo sapiens
[11] = tested on: HL-60; assay: Cytotoxicity evaluated against HL-60 tumor cell lines; Significant activity; settings: Homo sapiens
[12] = tested on: WIL2; assay: Cytotoxicity evaluated against WIL2 tumor cell lines; Significant activity; settings: Homo sapiens
[13] = tested on: Jurkat; assay: In vitro test for antitumor activity against human Jurkat cell line using a formazan dye (MTT) conversion assay.
[14] = tested on: A549; assay: Cytotoxicity evaluated against A549 tumor cell lines; significant activity; settings: Homo sapiens

Structure (SMILES): COc1cc2c(cc1O)C/C(=C\c1cc(C)c(O)c(C)c1)C2=O
Cytotoxicity [1]: Significant activity | Cytotoxicity [2]: Significant activity | Cytotoxicity [3]: Significant activity | Cytotoxicity [4]: Significant activity | Cytotoxicity [5]: Significant activity | Cytotoxicity [6]: Significant activity | Cytotoxicity [7]: Significant activity | Cytotoxicity [8]: Significant activity | Cytotoxicity [9]: Significant activity | Cytotoxicity [10]: Significant activity | Cytotoxicity [11]: Significant activity | Cytotoxicity [12]: Significant activity | IC50 [13]: 0.53 µM | Cytotoxicity [14]: Significant activity

Structure (SMILES): COc1cc2c(cc1OC)C(=O)/C(=C/c1cccc(C)c1)C2
Cytotoxicity [1]: Significant activity | Cytotoxicity [2]: Significant activity | Cytotoxicity [3]: Significant activity | Cytotoxicity [4]: Significant activity | Cytotoxicity [5]: Significant activity | Cytotoxicity [6]: Significant activity | Cytotoxicity [7]: Significant activity | Cytotoxicity [8]: Significant activity | Cytotoxicity [9]: Significant activity | Cytotoxicity [10]: Significant activity | Cytotoxicity [11]: Significant activity | Cytotoxicity [12]: Significant activity | IC50 [13]: 1.8 µM | Cytotoxicity [14]: Significant activity

Structure (SMILES): COc1cc2c(cc1OC)C(=O)/C(=C/c1cc(C)ccc1C)CC2
Cytotoxicity [1]: Significant activity | Cytotoxicity [2]: Significant activity | Cytotoxicity [3]: Significant activity | Cytotoxicity [4]: Significant activity | Cytotoxicity [5]: Significant activity | Cytotoxicity [6]: Significant activity | Cytotoxicity [7]: Significant activity | Cytotoxicity [8]: Significant activity | Cytotoxicity [9]: Significant activity | Cytotoxicity [10]: Significant activity | Cytotoxicity [11]: Significant activity | Cytotoxicity [12]: Significant activity | IC50 [13]: 6 µM | Cytotoxicity [14]: Significant activity

Further lines, with some results ahead:

IC50 [13]: 1.16 µM
Structure (SMILES): COc1cc2c(cc1OC)C(=O)/C(=C/c1ccc(O)c(C)c1)C2
Cytotoxicity [1]: Significant activity | Cytotoxicity [2]: Significant activity | Cytotoxicity [3]: Significant activity | Cytotoxicity [4]: Significant activity | Cytotoxicity [5]: Significant activity | Cytotoxicity [6]: Significant activity | Cytotoxicity [7]: Significant activity | Cytotoxicity [8]: Significant activity | Cytotoxicity [9]: Significant activity | Cytotoxicity [10]: Significant activity | Cytotoxicity [11]: Significant activity | Cytotoxicity [12]: Significant activity | Cytotoxicity [14]: Significant activity

IC50 [13]: 0.055 µM
Structure (SMILES): COc1cc2c(cc1OC)C(=O)/C(=C/c1cc(C)c(N)c(C)c1)C2
Cytotoxicity [1]: Significant activity | Cytotoxicity [2]: Significant activity | Cytotoxicity [3]: Significant activity | Cytotoxicity [4]: Significant activity | Cytotoxicity [5]: Significant activity | Cytotoxicity [6]: Significant activity | Cytotoxicity [7]: Significant activity | Cytotoxicity [8]: Significant activity | Cytotoxicity [9]: Significant activity | Cytotoxicity [10]: Significant activity | Cytotoxicity [11]: Significant activity | Cytotoxicity [12]: Significant activity | Cytotoxicity [14]: Significant activity

IC50 [13]: 2.5 µM
Structure (SMILES): COc1cc2c(cc1OC)C(=O)/C(=C/c1cc(I)cc(I)c1O)C2
Cytotoxicity [1]: Significant activity | Cytotoxicity [2]: Significant activity | Cytotoxicity [3]: Significant activity | Cytotoxicity [4]: Significant activity | Cytotoxicity [5]: Significant activity | Cytotoxicity [6]: Significant activity | Cytotoxicity [7]: Significant activity | Cytotoxicity [8]: Significant activity | Cytotoxicity [9]: Significant activity | Cytotoxicity [10]: Significant activity | Cytotoxicity [11]: Significant activity | Cytotoxicity [12]: Significant activity | Cytotoxicity [14]: Significant activity

Source: ChEMBL document CHEMBL1133412, “Rational design, synthesis and structure-activity relationships of antitumor (E)-2-benzylidene-1-tetralones and (E)-2-benzylidene-1-indanones” (Bioorg Med Chem Lett, 2000)
